Laboratory results from the NIST ThermoML archive (doi:10.1021/je501133u).
Numbers after ± are expanded uncertainties.

Test: xn = mol fraction of the nth substance listed
Conditions: 100 kPa, Liquid; for viscosity: Falling or rolling sphere viscometry; for mass density: Vibrating tube method

CCCCCCCO [heptan-1-ol] + CCO
viscosity (313.15 K, x2 = 0): 3.83 ± 0.04 mPa·s
viscosity (313.15 K, x2 = 0.1): 3.39 ± 0.04 mPa·s
viscosity (313.15 K, x2 = 0.2004): 3 ± 0.03 mPa·s
viscosity (313.15 K, x2 = 0.3007): 2.66 ± 0.03 mPa·s
viscosity (313.15 K, x2 = 0.3995): 2.38 ± 0.03 mPa·s
viscosity (313.15 K, x2 = 0.5007): 2.07 ± 0.03 mPa·s
viscosity (313.15 K, x2 = 0.5995): 1.78 ± 0.02 mPa·s
viscosity (313.15 K, x2 = 0.7001): 1.5 ± 0.02 mPa·s
viscosity (313.15 K, x2 = 0.8002): 1.26 ± 0.02 mPa·s
viscosity (313.15 K, x2 = 0.9003): 1.03 ± 0.02 mPa·s
mass density (313.15 K, x2 = 0): 808.2 ± 0.3 kg/m3
mass density (313.15 K, x2 = 0.1): 806.4 ± 0.3 kg/m3
mass density (313.15 K, x2 = 0.2004): 804.4 ± 0.2 kg/m3
mass density (313.15 K, x2 = 0.3007): 802.4 ± 0.2 kg/m3
mass density (313.15 K, x2 = 0.3995): 800.1 ± 0.2 kg/m3
mass density (313.15 K, x2 = 0.5007): 797.2 ± 0.2 kg/m3
mass density (313.15 K, x2 = 0.5995): 793.8 ± 0.2 kg/m3
mass density (313.15 K, x2 = 0.7001): 790 ± 0.2 kg/m3
mass density (313.15 K, x2 = 0.8002): 785.4 ± 0.2 kg/m3
mass density (313.15 K, x2 = 0.9003): 780 ± 0.2 kg/m3
viscosity (318.15 K, x2 = 0): 3.33 ± 0.04 mPa·s
viscosity (318.15 K, x2 = 0.1): 2.96 ± 0.03 mPa·s
viscosity (318.15 K, x2 = 0.2004): 2.63 ± 0.03 mPa·s
viscosity (318.15 K, x2 = 0.3007): 2.35 ± 0.03 mPa·s
viscosity (318.15 K, x2 = 0.3995): 2.11 ± 0.03 mPa·s
viscosity (318.15 K, x2 = 0.5007): 1.85 ± 0.03 mPa·s
viscosity (318.15 K, x2 = 0.5995): 1.6 ± 0.02 mPa·s
viscosity (318.15 K, x2 = 0.7001): 1.36 ± 0.02 mPa·s
viscosity (318.15 K, x2 = 0.8002): 1.14 ± 0.02 mPa·s
viscosity (318.15 K, x2 = 0.9003): 0.94 ± 0.02 mPa·s
mass density (318.15 K, x2 = 0): 804.6 ± 0.3 kg/m3
mass density (318.15 K, x2 = 0.1): 802.8 ± 0.3 kg/m3
mass density (318.15 K, x2 = 0.2004): 800.7 ± 0.2 kg/m3
mass density (318.15 K, x2 = 0.3007): 798.7 ± 0.2 kg/m3
mass density (318.15 K, x2 = 0.3995): 796.3 ± 0.2 kg/m3
mass density (318.15 K, x2 = 0.5007): 793.4 ± 0.2 kg/m3
mass density (318.15 K, x2 = 0.5995): 790 ± 0.2 kg/m3
mass density (318.15 K, x2 = 0.7001): 786 ± 0.2 kg/m3
mass density (318.15 K, x2 = 0.8002): 781.4 ± 0.2 kg/m3
mass density (318.15 K, x2 = 0.9003): 775.8 ± 0.2 kg/m3
viscosity (323.15 K, x2 = 0): 2.89 ± 0.03 mPa·s
viscosity (323.15 K, x2 = 0.1): 2.59 ± 0.03 mPa·s
viscosity (323.15 K, x2 = 0.2004): 2.31 ± 0.03 mPa·s
viscosity (323.15 K, x2 = 0.3007): 2.08 ± 0.03 mPa·s
viscosity (323.15 K, x2 = 0.3995): 1.88 ± 0.03 mPa·s
viscosity (323.15 K, x2 = 0.5007): 1.65 ± 0.02 mPa·s
viscosity (323.15 K, x2 = 0.5995): 1.44 ± 0.02 mPa·s
viscosity (323.15 K, x2 = 0.7001): 1.23 ± 0.02 mPa·s
viscosity (323.15 K, x2 = 0.8002): 1.04 ± 0.02 mPa·s
viscosity (323.15 K, x2 = 0.9003): 0.87 ± 0.02 mPa·s
mass density (323.15 K, x2 = 0): 801 ± 0.3 kg/m3
mass density (323.15 K, x2 = 0.1): 799.1 ± 0.3 kg/m3
mass density (323.15 K, x2 = 0.2004): 797 ± 0.2 kg/m3
mass density (323.15 K, x2 = 0.3007): 794.9 ± 0.2 kg/m3
mass density (323.15 K, x2 = 0.3995): 792.5 ± 0.2 kg/m3
mass density (323.15 K, x2 = 0.5007): 789.5 ± 0.2 kg/m3
mass density (323.15 K, x2 = 0.5995): 786 ± 0.2 kg/m3
mass density (323.15 K, x2 = 0.7001): 782 ± 0.2 kg/m3
mass density (323.15 K, x2 = 0.8002): 777.2 ± 0.2 kg/m3
mass density (323.15 K, x2 = 0.9003): 771.5 ± 0.2 kg/m3
viscosity (328.15 K, x2 = 0): 2.54 ± 0.03 mPa·s
viscosity (328.15 K, x2 = 0.1): 2.28 ± 0.03 mPa·s
viscosity (328.15 K, x2 = 0.2004): 2.05 ± 0.03 mPa·s
viscosity (328.15 K, x2 = 0.3007): 1.84 ± 0.03 mPa·s
viscosity (328.15 K, x2 = 0.3995): 1.68 ± 0.02 mPa·s
viscosity (328.15 K, x2 = 0.5007): 1.48 ± 0.02 mPa·s
viscosity (328.15 K, x2 = 0.5995): 1.29 ± 0.02 mPa·s
viscosity (328.15 K, x2 = 0.7001): 1.11 ± 0.02 mPa·s
viscosity (328.15 K, x2 = 0.8002): 0.94 ± 0.02 mPa·s
viscosity (328.15 K, x2 = 0.9003): 0.79 ± 0.02 mPa·s
mass density (328.15 K, x2 = 0): 797.4 ± 0.3 kg/m3
mass density (328.15 K, x2 = 0.1): 795.4 ± 0.3 kg/m3
mass density (328.15 K, x2 = 0.2004): 793.3 ± 0.2 kg/m3
mass density (328.15 K, x2 = 0.3007): 791.2 ± 0.2 kg/m3
mass density (328.15 K, x2 = 0.3995): 788.7 ± 0.2 kg/m3
mass density (328.15 K, x2 = 0.5007): 785.6 ± 0.2 kg/m3
mass density (328.15 K, x2 = 0.5995): 782.1 ± 0.2 kg/m3
mass density (328.15 K, x2 = 0.7001): 777.9 ± 0.2 kg/m3
mass density (328.15 K, x2 = 0.8002): 773 ± 0.2 kg/m3
mass density (328.15 K, x2 = 0.9003): 767.1 ± 0.2 kg/m3
